Numbers after ± are expanded uncertainties.
Details: Crystal; visual observation

SMILES: O=[N+]([O-])/N=C1\NCCN1Cc1ccc(Cl)nc1 [imidacloprid]
- Normal melting temperature: 144.00 ± 0.68 °C
